Source: patent US20250237628A1, “CELL SELECTION AND/OR STIMULATION DEVICES AND METHODS OF USE” (Juno Therapeutics GmbH, priority 2019, published 2025)

How the values were obtained:
mTOR = assay: Intracellular S6 phosphorylation (marker of mTOR inhibition) in engineered T cells; format: cell-based, human; conditions: live CD8+ T cells, Temra, Tem subsets; cells produced with vs without Compound 63
Description: (§1) CD4+ and CD8+ T cells were isolated by immunoaffinity-based enrichment from leukapheresis samples from human donor subjects. […] The T cells cultured with our without Compound 63 were incubated overnight (approximately 24 hr) at 37° C., and were then transduced in serum-free culture media with our without Compound 63 ([…]) with a lentiviral vector encoding an anti-CD19 CAR. […] Following transduction, the cells were incubated in serum free media without recombinant cytokines (basal media) and with or without Compound 63 (1 mM) and allowed to incubate at about 37.0° C. in an incubator for up to 96 hours after initiation of the stimulation with the anti-CD3/anti-CD28 oligomeric stimulatory reagent (until day 5 of the process). […] The cryofrozen engineered CD4+ and CD8+ T cells were thawed, and T cells were assessed for intracellular S6 phosphorylation, a ribosomal protein and marker of mTOR inhibition, and co-stained for surface expression of CD4 or CD8 and for CCR7 and CD45RA as markers of memory subsets. pS6 expression in live CD8+ T cells by memory subsets was shown by the expression of CCR7 and CD45RA as shown in FIG. 16A. As shown, incubation with Compound 63 decreased the mean fluorescence intensity of stimulated memory T cell subsets, […], indicating an inhibition of mTOR, while having no significant effect on the percentage or total number of viable cells over time.

CD4+ and CD8+ T cells [1] = assay: Viable cells in engineered T cell composition over the process; format: cell-based, human; conditions: presence vs absence of compound 63 in the process
Description: as §1

CD4+ and CD8+ T cells [2] = assay: Surface expression of CD27 and CCR7 by flow cytometry (phenotypic subset profile); format: cell-based, human; conditions: thawed
CD4+ and CD8+ T cells [3] = assay: Intracellular cytokines following stimulation with PMA/Ionomycin and a Golgi inhibitor; format: cell-based, human; conditions: engineered CD8+ and CD4+ T cells produced in presence of Compound 63
CAR-T cells = assay: Intracellular caspase expression (marker of apoptosis) in thawed CAR-T cells; format: cell-based, human; conditions: incubated with vs without compound 63
anti-CD19 CAR T cells = assay: Long-term stimulation over 12 days with anti-idiotype antibody beads, expansion and survival; format: cell-based, human; conditions: anti-ID beads, cells produced in presence vs absence of compound 63
Description: CD4+ and CD8+ T cells were isolated by immunoaffinity-based enrichment from leukapheresis samples from human donor subjects. At day 1, isolated CD4+ and CD8+ T cells were mixed 1:1 and stimulated with an anti-CD3/anti-CD28 oligomeric stimulatory reagent generated as described in Example 1 in serum-free media supplemented with recombinant IL-2 (100 IU/mL), recombinant IL-7 (600 IU/mL), and recombinant IL-15 (100 IU/mL) with or without 1 μM of 2-(3-hydroxyphenyl)-9-(2-isopropylphenyl)-8-oxo-8,9-dihydro-7H-purine-6-carboxamide (Compound 63). The T cells cultured with our without Compound 63 were incubated overnight (approximately 24 hr) at 37° C., and were then transduced in serum-free culture media with our without Compound 63 ([…]) with a lentiviral vector encoding an anti-CD19 CAR. The CAR contained an scFv antigen-binding domain specific for CD19 (derived from FMC63), a CD28 transmembrane region, a 4-1BB costimulatory signaling region, and a CD3-zeta derived intracellular signaling domain. […]
To further assess the functional activity of the cells, the generated T cell compositions were stimulated long-term over 12 days with beads conjugated with an anti-idiotype (ID) antibody against the anti-CD19 CAR, and expansion and survival of the cells were monitored (FIG. 17F, left panel) and total expansion metric calculated by area under the growth curve (FIG. 17F, right panel, AUC).

[4] = target: Strep-Tactin® (mutein streptavidin, e.g. SEQ ID NO: 4) (Streptomyces avidinii, UniProt P22629, E68V/S69T/V71R); conditions: background statement, no experiment described; read-out: KD of binding to Strep-Tactin®; cited from earlier work
Strep-Tactin® (mutein streptavidin, e.g. SEQ ID NO: 4), sequence (P22629 other isoform, or with tags, fused parts or gaps E68V/S69T/V71R): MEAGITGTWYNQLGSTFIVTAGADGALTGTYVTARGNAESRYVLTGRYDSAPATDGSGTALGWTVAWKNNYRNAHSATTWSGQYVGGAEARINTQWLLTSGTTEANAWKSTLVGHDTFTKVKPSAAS

Compound	mean fluorescence intensity of pS6 in memory T cell subsets (mTOR)	percent viable cells (CD4+ and CD8+ T cells [1])	total live cells (CD4+ and CD8+ T cells [1])	phenotypic subset profile by CD27 and/or CCR7 expression (CD4+ and CD8+ T cells [2])	level of intracellular cytokines IL2, IFNg, or TNF (CD4+ and CD8+ T cells [3])	intracellular caspase expression (CAR-T cells)	function (expansion) following long-term CAR-specific stimulation (anti-CD19 CAR T cells)	Kd [4] [nM]
CC(C)c1ccccc1-n1c(=O)[nH]c2c(C(N)=O)nc(-c3cccc(O)c3)nc21 [Compound 63, 2-(3-hydroxyphenyl)-9-(2-isopropylphenyl)-8-oxo-8,9-dihydro-7H-purine-6-carboxamide]	decreased	did not impact	did not impact	did not substantially alter	substantially improved	less intracellular caspase expression	improved function	–
WSHPQFEK [Strep-Tag® II]	–	–	–	–	–	–	–	~1000
